Patent US8354455B2, “Prodrugs containing novel bio-cleavable linkers” (Piramal Enterprises Limited and Apparao Satyam, priority 2004, dated 2013)
In brackets after ≈: the same amount, converted by molar mass.

Columns and labels:
[1] = test system: carrageenan-induced rat paw edema; assay: Carrageenan-induced rat paw edema; format: in vivo; details: 75 mg/kg equivalent dose of aspirin, p.o.; for Rat paw edema (% inhibition) 1 hour / Rat paw edema (% inhibition) 2 hour / Rat paw edema (% inhibition) 4 hour / Rat paw edema (% inhibition) 6 hour: Mean ± SEM, n = 6
[2] = both, Sprague-Dawley, rat, in vivo, po, 35 mg/kg
[3] = test system: rats; details: rat, in vivo, po, 100 mg/kg
[4] = In vitro plasma stability; format: in vitro ADME; details: rat plasma, 37° C., 30 minutes incubation, HPLC
Excerpt: The compounds were extracted back into acetonitrile with rigorous vortex.

[5] = test system: rats; details: rat, in vivo, po, 50 mg/kg
Excerpt: Acute Toxicity—Minimal Motor Impairment (MMI): To assess a compound's undesirable side effects (toxicity), animals were monitored for overt signs of impaired neurological or muscular function.
Groups of at least 8 rats received various doses of the candidate compound until at least two points were established between the limits of 100 percent protection or toxicity and zero percent protection or minimal toxicity. The 95 percent confidence limits, slopes of the regression lines and standard errors of the slopes were calculated for each quantitative determination. Rats received test compounds orally.
This secondary evaluation determines the time to peak effect (TPE), neurotoxicity, median effective dose (ED50) and biological response.

[6] = test system: MES-induced seizures; assay: Maximal Electroshock Test (MES), Test 1, mice i.p.; format: in vivo
[7] = test system: MES-induced seizures; assay: animal or person; format: in vivo, rats; details: Test 2, rats p.o., 50 mg/kg
[8] = test system: mice
[9] = test system: convulsant metrazol; assay: Subcutaneous Metrazol Seizure Threshold Test (scMET), Test 1, mice i.p.; format: in vivo; details: mice, i.p.
[10] = Water solubility (HPLC of supernatant); format: physicochemical
Procedure: Water solubility: Paclitaxel and its prodrug I-S22-PD2 (2 mg each) were suspended in 1 mL water or PBS-buffer (pH 7.4). The suspensions were sonicated for 15 min and centrifuged (13,000 g) for 10 min. The supernatant was analyzed using HPLC.
HPLC: Waters RP18 column ([…], X-Terra); DAD-HP Agilent (Model 1100); eluent: CH3CN:H2O (gradient 0-100% acetonitrile in 0-15 min). The UV-detector was set at […]. The concentrations were determined by measuring the relative area of paclitaxel or I-S22-PD2. […] (i.e., ˜0.2 mg/mL).

CC(=O)Oc1ccccc1C(=O)O [Aspirin, reference compound]
anti-inflammatory activity (in words) [1]: anti-inflammatory activity from 1 hr through 6 hr with peak maximal activity at 4 hr
Rat paw edema (% inhibition) 1 hour [1]: 31.0 ± 7.2%
Rat paw edema (% inhibition) 2 hour [1]: 52.5 ± 3.4%
Rat paw edema (% inhibition) 4 hour [1]: 60.7 ± 6.9%
Rat paw edema (% inhibition) 6 hour [1]: 42.8 ± 6.9%
salicylate release / absorption profile (in words) [2]: highest during 0.5-6.0 hrs
ulcers (in words) [3]: severe haemorrhagic lesions
release of parent drug / conversion to salicylate (in words) [4]: completely metabolized to salicylate

CCOC(=O)CC1(CNC(=O)OCCSSCC(=O)OC)CCCCC1 [I-A1-PD5]
Toxicity (number of animals exhibiting toxicity/number of animals tested) [5]: 0/4
activity in MES model (in words) ([6]; Test 1, mice i.p.): active in MES
MES (number of animal protected/number of animal tested) ([6]; mice, i.p., 0.5 h, 300 mg/kg (+)): (1/1)
MES 0.5 h ([6]; mice, i.p., 0.5 h, symbol = dose with activity): + (+ = activity or toxicity at 300 mg/kg)
MES 4.0 h ([6]; mice, i.p., 4.0 h, symbol = dose with activity): — (— = no activity or no toxicity at 300 mg/kg)
MES (number of animal protected/number of animal tested) ([7]; 0.50 h): 0/4
MES (number of animal protected/number of animal tested) ([7]; 1.00 h): 0/4
MES (number of animal protected/number of animal tested) ([7]; 2.00 h): 1/4
MES (number of animal protected/number of animal tested) ([7]; 4.00 h): 1/4
toxicity (in words) ([8]; Test 1, mice i.p.): no or mild toxicity
Rotorod Toxicity 0.5 h ([8]; mice, i.p., 0.5 h, symbol = dose with toxicity): + (+ = activity or toxicity at 300 mg/kg)
Rotorod Toxicity 4.0 h ([8]; mice, i.p., 4.0 h, symbol = dose with toxicity): — (— = no activity or no toxicity at 300 mg/kg)
ScMET (number of animal protected/number of animal tested) ([9]; 0.5 h, 300 mg/kg (+)): (3/5)
ScMET 0.5 h ([9]; 0.5 h, symbol = dose with activity): + (+ = activity or toxicity at 300 mg/kg)
ScMET 4.0 h ([9]; 4.0 h, symbol = dose with activity): — (— = no activity or no toxicity at 300 mg/kg)

CC(=O)Oc1ccccc1C(=O)OCCSSCCO[N+](=O)[O-] [I-C1-NOPD4]
anti-inflammatory activity (in words) [1]: significant activity during the first two hours
Rat paw edema (% inhibition) 1 hour [1]: 42.4 ± 13.3%
Rat paw edema (% inhibition) 2 hour [1]: 44.9 ± 12.9%
Rat paw edema (% inhibition) 4 hour [1]: 24.3 ± 7.7%
Rat paw edema (% inhibition) 6 hour [1]: 8.6 ± 5.1%
salicylate release / absorption profile (in words) [2]: released in a sustained and controlled manner starting from 1 hour through 12 hours
ulcers (in words) [3]: none of the animals treated with the test compounds showed any signs of development of ulcers
release of parent drug / conversion to salicylate (in words) [4]: converting to the expected metabolite (salicylate)

CC(=O)O[C@H]1C(=O)[C@@]2(C)C([C@H](OC(=O)c3ccccc3)[C@]3(O)C[C@H](OC(=O)[C@H](OC(=O)OCCSSCCOC(=O)CCC(=O)O)[C@@H](NC(=O)c4ccccc4)c4ccccc4)C(C)=C1C3(C)C)[C@]1(OC(C)=O)CO[C@@H]1C[C@@H]2O (stereo partly drawn) [I-S22-PD2]
solubility at 15 min ([10]; aqueous buffer, thermodynamic from solid, 2 mg suspended in 1 mL water or PBS-buffer (pH 7.4), sonicated, centrifuged): ~200 µg/mL (≈ 176 µM)
solubility relative to paclitaxel ([10]; water or PBS-buffer (pH 7.4)): 20 times
